Test results taken from US20220354818A1, “METHODS FOR TREATING BRAIN INJURY OR COGNITIVE DYSFUNCTION BY PHARMACOLOGICAL ENHANCMENT OF M-TYPE POTASSIUM ION CURRENTS IN NEURONS” (Advanced Neuroresearch Therapeutics LLC, priority 2019, published 2022).
Entries after “also recorded” stand apart in the source; their conditions may differ.

What was measured:
[1] = test system: mice subjected to CCCI, subthreshold pilocarpine; experiment: Pilocarpine-induced seizure susceptibility after CCCI; format: in vivo, mouse; conditions: three subthreshold pilocarpine doses on fifth day after CCCI; RTG 1.2 mg/kg i.p. 30 min post-TBI
Experimental: Pilocarpine is a cholinomimetic drug widely used as a chemo-convulsant in animal models to induce status epilepticus. To minimize pilocarpine-induced peripheral cholinergic effects and mortality, animals were pretreated with scopolamine methyl nitrate (i.p. 1 mg/kg; MP Biomedicals) 30 minutes prior to pilocarpine injection. Both drugs were diluted in sterile 0.9% (w/v) saline. Immediately after pilocarpine injection, cortical activity was monitored for 24 hours by video/EEG recording.

neurons = experiment: Fluoro Jade B staining of neuronal cell death after CCCI; format: in vivo, mouse; conditions: six days after CCCI; RTG 30 minutes post-TBI
Experimental: Flouro Jade B (FJB) staining was performed to assay neuronal cell death histologically and detect the degree of neurodegeneration six days after CCCI. Staining was performed as previously described.
Six days after CCCI, mice were euthanized via transcardial perfusion with PBS followed by 4% (w/v) paraformaldehyde (PFA). Brains were removed, post-fixed overnight in 4% PFA (Electron Microscopy Sciences), transferred into 30% (w/v) sucrose in PBS and kept at 4° C. for 3 days. […]
Ipsilateral cortical images (fluorescence images of FJB and counterstained DAPI) were taken by a Nikon Eclipse Ti with camera coolSNAP HQ^2 (confocal) microscope using a 20× objective (N.A. 0.75). Fluorescence excitation-emission for Fluoro Jade and DAPI were 470/40-500 and 350/50-460, respectively.
Cell count was obtained by nonbiased automatic quantification with ImageJ/FIJI (NIH, USA) particle analysis. […] After background subtraction and image threshold (1.05%), FIB positive cells were detected using the “analyze particles” (size: 20-100, circularity: 0.00-1.00) function of ImageJ. These parameters determined the pixel size and circularity of the acceptable ROIs and were used to identify cell bodies automatically.

[2] = test system: TAR DNA-binding protein 43 (TDP-43); experiment: TDP-43 immunoblotting and immunohistochemistry after rbTBI (CTE marker); format: in vivo, mouse
Experimental: Levels of TDP-43 were first analyzed by immunoblotting experiments performed as previously described. Cortical and hippocampal samples were collected when the mice were 26-28 months of age.
Complementary to the immunoblot experiments, immunohistochemistry staining of TDP-43 was performed as previously described. Left hemisphere samples were removed and fixed overnight in 4% paraformaldehyde (Electron Microscopy Sciences). Subsequently, samples were transferred into 30% (w/v) sucrose in PBS and kept for 3 days at 4° C. before they were frozen in Tissue-Plus O.C.T. Compound (Fisher Scientific) using 2-methylbutane immersed in dry ice. Samples were stored at −80° C. until cross-sectioning.
20 μm thick coronal sections of the prefrontal cortex (PFC) were mounted on Superfrost Plus microscope slides (Fisher Scientific) previously coated with gelatin (Sigma). […] Images were taken in the PFC layer II at 40× magnification using an iXon ultra EMCCD Andor camera attached to a Nikon Eclipse TE2000-U microscope, with a fixed exposition time of 200 ms, in the 16-bit readout mode, with 2 MHz speed, and a pre-amplifier gain of 3. The mean and maximum fluorescence signal was obtained by automatic quantification with ImageJ (National Institutes of Health, USA). […]
Samples used in the immunoblotting and the immunohistochemistry experiments were from the EEG-monitored mice and from the above independent cohort. […]

[3] = test system: C57BL/6J mice subjected to three blast TBIs; experiment: Repetitive blast TBI (rbTBI): post-traumatic seizures and post-traumatic epilepsy, video/EEG
Experimental: Adult 12-week-old male C57BL/6J mice (Jackson Labs, Bar Harbor, Me.) were group-housed with food and water ad libitum in 12:12 hour light: dark cycle. […] Experimenters were blinded to group allocation during data collection and analysis.
The shock tube (Applied Research Associates) had and inner diameter of 17 inches and a about 36-inch end opening. […] Before reaching the mice, the air blast wave passed through a 0.016-inch-thick aluminum membrane of alloy AL-2200. Pencil probe gauges (PCB Piezotronics) were placed beside the mice to monitor the pressure of the air-driven blast wave. […] During the procedure, mice were anesthetized using ketamine (25-75 mg/kg) and dexmedetomidine (0.25 mg/kg). The animals were subjected to three directed head-on blast TBI with 24 hours intervals between each injury. On the first day of blast exposure, animals were given a subcutaneous injection of buprenorphine SR (1.2 mg/kg) in the interscapular region.
Sham animals were anesthetized and placed in the shock tube but were not subjected to the rbTBI. After each blast exposure, mice were given one subcutaneous injection of atipamezole (1 mg/kg) to reverse the anesthesia and placed into a recovery chamber with controlled temperature. On the following days, mice were monitored for signs of pain and distress.
Mice from the “TBI” group were injected with the same volume of vehicle solution only.
Seizures were identified visually by the investigator's analysis of the video/EEG records. The number of seizures, latency to the first seizure, seizure duration, and percentage of mice from each group that had seizures were quantified.

For `CCOC(=O)Nc1ccc(NCc2ccc(F)cc2)cc1N` [RTG, 2-amino-4-(4-fluorobenzylamino)-1-ethoxycarbonylaminobenzene], the “pilocarpine-induced abnormal spike activity” value [1] was “significant reduction of pilocarpine-induced abnormal spike activity”, the “Fluoro Jade B labeling of neurons (neuronal death)” value (neurons) was “significantly higher FJB staining as compared to TBI+RTG cortical slices; also recorded: labeling of brain neurons by FJB was minimal” and the “TDP-43 expression in the cerebral cortex” value ([2]; 2 years after TBIs, immunoblot and immunofluorescence) was “reduced TDP-43 as compared to the Blast cohort”. For the same compound, the “phosphorylation levels of TDP-43” value ([2]; cerebral cortex) was “Neither TBI, nor RTG treatment, changed the phosphorylation levels of TDP-43”, the “duration of post-traumatic seizures (PTS)” value ([3]; rbTBI, RTG 1.2 mg/kg i.p. 30 minutes after each blast, second to fourth day after TBIs) was “significantly reduced duration of the PTS” and the “mice experiencing seizures (PTE)” value ([3]; rbTBI, RTG 30 minutes after each TBI, first to ninth month after final rbTBI) was “about 20%”. The “severity of post-traumatic seizures (EEG amplitude)” value ([3]; rbTBI, RTG 30 minutes after each blast) was “less severe” and the “mice that developed post-traumatic epilepsy (PTE)” value ([3]; three blast TBIs one day apart, RTG 30 min after each, 1 month to 12 months after injury) was 25%.
